This is an account of results in patent US20240247015A1, “PHOSPHORUS DERIVATIVES AS NOVEL SOS1 INHIBITORS” (BAYER AKTIENGESELLSCHAFT, priority 2021, published 2024).

SMILES strings stand for the structures.

interaction of human SOS1 (SOS1) with human K-RasG12C, sequence (Q07889 564-1049 limits assumed): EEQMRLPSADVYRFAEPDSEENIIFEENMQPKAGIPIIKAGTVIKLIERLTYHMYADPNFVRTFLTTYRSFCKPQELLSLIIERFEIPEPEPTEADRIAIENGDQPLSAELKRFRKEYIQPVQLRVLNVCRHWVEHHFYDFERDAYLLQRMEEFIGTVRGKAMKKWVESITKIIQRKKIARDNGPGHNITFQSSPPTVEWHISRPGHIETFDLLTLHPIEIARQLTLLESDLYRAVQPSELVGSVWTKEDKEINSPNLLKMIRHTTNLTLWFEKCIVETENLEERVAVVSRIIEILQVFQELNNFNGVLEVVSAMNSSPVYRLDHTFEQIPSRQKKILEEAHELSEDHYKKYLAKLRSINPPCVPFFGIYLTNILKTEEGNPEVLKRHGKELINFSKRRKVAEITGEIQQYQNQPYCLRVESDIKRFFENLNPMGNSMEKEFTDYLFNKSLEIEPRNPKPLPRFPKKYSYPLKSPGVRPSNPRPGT

This test addresses interaction of human SOS1 (SOS1) with human K-RasG12C (Homo sapiens (Human), UniProt Q07889). Nature of the test: Biochemical assay: hK-RasG12C interaction assay with hSOS1 (HTRF). It counts as binding. Conditions: GST-hK-RasG12C with His-hSOS1, 60 min incubation at 20° C., mean, read-out: K-RasG12C - SOS interaction assay IC50 (mean). A digest of the protocol: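 Compounds, duplicates at 11 concentrations from 0.073 nM to 20 µM, were preincubated 2 min with 10 nM GST-hK-RasG12C, then 20 nM His-hSOS1 was added, all at 20 °C. After 60 min, 665/620 nm HTRF ratio normalized to DMSO and SOS1-free controls; IC50 by 4-parameter fit.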
As usually defined, the IC50 is the concentration at which inhibition is half-maximal. In the case of `Cc1nc(NC(C)c2ccnc(C(F)(F)F)c2)c2cc(P(C)(C)=O)ncc2n1` (single isomer, unassigned) [Example 24, 6-(dimethylphosphoryl)-2-methyl-N-{1-[2-(trifluoromethyl)pyridin-4-yl]ethyl}pyrido[3,4-d]pyrimidin-4-amine], the IC50 is more than 20000 nM.
As for `Cc1nc(N[C@H](C)c2cccc(C(F)(F)CO)c2F)c2cc(P(C)(C)=O)nc(C)c2n1` [Example 124, 2-{3-[(1R)-1-{[6-(dimethylphosphoryl)-2,8-dimethylpyrido[3,4-d]pyrimidin-4-yl]amino}ethyl]-2-fluorophenyl}-2,2-difluoroethan-1-ol], the IC50 was found to be 16.7 nM.
As to `Cc1nc(N[C@H](C)c2cccc(C(F)(F)C(C)(C)O)c2F)c2cc(P(C)(C)=O)nc(O)c2n1` [Example 26, 4-({(1R)-1-[3-(1,1-difluoro-2-hydroxy-2-methylpropyl)-2-fluorophenyl]ethyl}amino)-6-(dimethylphosphoryl)-2-methylpyrido[3,4-d]pyrimidin-8-ol], the IC50 was determined as 9.18 nM.
Consider `CCP(C)(=O)c1cc2c(N[C@H](C)c3cccc(C(F)F)c3F)nc(C)nc2cn1` (stereo partly drawn) [Example 117, N-{(1R)-1-[3-(difluoromethyl)-2-fluorophenyl]ethyl}-6-[ethyl(methyl)phosphoryl]-2-methylpyrido[3,4-d]pyrimidin-4-amine], for which the IC50 came out at 56.9 nM.
`CC(=O)N1CCP(=O)(c2cc3c(N[C@H](C)c4cccc(C(F)(F)F)c4)nc(C)nc3cn2)CC1` [Example 192]: the IC50 amounted to 11.7 nM.
On to `CC(=O)N1CCP(=O)(c2cnc3nc(C)nc(N[C@H](C)c4cccc(C(F)(F)F)c4C)c3c2)CC1` [Example 147, 1-acetyl-4-[2-methyl-4-({(1R)-1-[2-methyl-3-(trifluoromethyl)phenyl]ethyl}amino)pyrido[2,3-d]pyrimidin-6-yl]-1,4lambda^5-azaphosphinan-4-one], for which the IC50 came out at 4.51 nM.
Turning to `Cc1nc(N[C@H](C)c2cccc(C(F)F)c2F)c2cc(P3(=O)CCN(C(=O)C(C)C)CC3)ncc2n1` [Example 153, 4-[4-({(1R)-1-[3-(difluoromethyl)-2-fluorophenyl]ethyl}amino)-2-methylpyrido[3,4-d]pyrimidin-6-yl]-1-(2-methylpropanoyl)-1,4lambda^5-azaphosphinan-4-one], the half-inhibitory concentration (IC50) is 7.4 nM.
In the case of `Cc1nc(N[C@H](C)c2cccc(C(F)F)c2F)c2cc(P(C)(C)=O)c(C(F)(F)F)nc2n1` [Example 125, N-{(1R)-1-[3-(difluoromethyl)-2-fluorophenyl]ethyl}-6-(dimethylphosphoryl)-2-methyl-7-(trifluoromethyl)pyrido[2,3-d]pyrimidin-4-amine], the IC50 came to 44.3 nM.
On to `Cc1nc(N[C@H](C)c2cccc(C(F)(F)C(C)O)c2F)c2cc(P3(=O)CCCC3)ncc2n1` (single isomer, unassigned) [Example 112, 1-(4-{[(1R)-1-{3-[(2R*)-1,1-difluoro-2-hydroxypropyl]-2-fluorophenyl}ethyl]amino}-2-methylpyrido[3,4-d]pyrimidin-6-yl)-1lambda^5-phospholan-1-one], for which the IC50 is 11.2 nM.
The result for `Cc1nc(N[C@H](C)c2cccc(C(F)(F)C(C)(C)O)c2F)c2cc(P(C)(C)=O)nc(C)c2n1` [Example 11, 1-{3-[(1R)-1-{[6-(dimethylphosphoryl)-2,8-dimethylpyrido[3,4-d]pyrimidin-4-yl]amino}ethyl]-2-fluorophenyl}-1,1-difluoro-2-methylpropan-2-ol] reads 52.9 nM.
As to `Cc1nc(N[C@H](C)c2cccc(C(F)(F)F)c2C)c2cc(P3(=O)CCN(C(=O)[C@H](C)O)CC3)ncc2n1` [Example 165, 1-[(2S)-2-hydroxypropanoyl]-4-[2-methyl-4-{{(1R)-1-[2-methyl-3-(trifluoromethyl)phenyl]ethyl}amino)pyrido[3,4-d]pyrimidin-6-yl]-1,4lambda^5-azaphosphinan-4-one], the IC50 worked out at 4.37 nM.
For the compound `CNC(=O)C(F)(F)c1cccc([C@@H](C)Nc2nc(C)nc3cnc(P(C)(C)=O)cc23)c1F` [Example 51, 2-{3-[(1R)-1-{[6-(dimethylphosphoryl)-2-methylpyrido[3,4-d]pyrimidin-4-yl]amino}ethyl]-2-fluorophenyl}-2,2-difluoro-N-methylacetamide], the IC50 turned out to be 86.3 nM.
As for `Cc1nc(N[C@H](C)c2cccc(C(F)(F)C(O)C(C)C)c2F)c2cc(P(C)(C)=O)ncc2n1` (single isomer, unassigned) [Example 87, (2R*)-1-{3-[(1R)-1-{[6-(dimethylphosphoryl)-2-methylpyrido[3,4-d]pyrimidin-4-yl]amino}ethyl]-2-fluorophenyl}-1,1-difluoro-3-methylbutan-2-ol], the IC50 came to 2.86 nM.
As for `Cc1nc(N[C@H](C)c2cccc(C(F)(F)C(C)O)c2F)c2cc(P(C)(=O)C(C)C)ncc2n1` (single isomer, unassigned) [Example 84, (2R*)-1,1-difluoro-1-{2-fluoro-3-[(1R)-1-({2-methyl-6-[methyl(propan-2-yl)phosphoryl]pyrido[3,4-d]pyrimidin-4-yl}amino)ethyl]phenyl}propan-2-ol], the IC50 was determined as 24.1 nM.
Regarding `CCP(C)(=O)c1cc2c(N[C@H](C)c3cccc(C(F)(F)C(C)O)c3F)nc(C)nc2cn1` (single isomer, unassigned) [Example 77, (2R*)-1-{3-[(1R)-1-{{6-[ethyl(methyl)phosphoryl]-2-methylpyrido[3,4-d]pyrimidin-4-yl}amino)ethyl]-2-fluorophenyl}-1,1-difluoropropan-2-ol], the IC50 turned out to be 17.8 nM.
Under `Cc1nc(N[C@H](C)c2cccc(C(F)(F)F)c2C)c2cc(P3(=O)CCN(C(=O)C4CC4)CC3)ncc2n1` [Example 174, 1-(cyclopropanecarbonyl)-4-[2-methyl-4-({(1R)-1-[2-methyl-3-(trifluoromethyl)phenyl]ethyl}amino)pyrido[3,4-d]pyrimidin-6-yl]-1,4lambda^5-azaphosphinan-4-one] stands 3.89 nM; under `Cc1nc(N[C@H](C)c2cccc(C(F)(F)F)c2C)c2cc(P(=O)(C(C)C)C(C)C)ncc2n1` [Example 98, 6-[di(propan-2-yl)phosphoryl]-2-methyl-N-{(1R)-1-[2-methyl-3-(trifluoromethyl)phenyl]ethyl}pyrido[3,4-d]pyrimidin-4-amine], 139 nM.
